# Assay results taken from patent publication US20090233796A1, “HERBICIDAL COMPOSITION” (SYNGENTA CROP PROTECTION, INC., priority 2004, published 2009).
# Legend:
# Type in all cases: in vivo
# STELLARIA MEDIA = experiment: Compound (A) with triasulfuron, weed plots; conditions: 10 g per hectare; 30 DAA; No. 3.1
# Protocol: In these tests, various weeds were treated with triasulfuron alone at a rate equivalent to 26 g per hectare, Compound (A) alone at a rate equivalent to 10 g per hectare, and to a mixture of triasulfuron and Compound (A) at rates equivalent to the sum of these. The compositions were formulated as an emulsifyable concentrate (EC).
# The results in the table under each application are the percentage of the plants that were killed.
# Corn = experiment: Compound (A) with prosulfuron, weed plots; conditions: 13 DAA, No. 3.26
# Text: (§1) In these tests, […] and Compound (A) at rates equivalent to the sum of these. The compositions were formulated as an emulsifiable concentrate (EC).
# (§2) The results in the tables under each application are the percentage of the plants that were killed.
# Galium = experiment: Compound (A) with prosulfuron, weed plots; conditions: 13 DAA, No. 3.24
# Text: as §1, §2
# Ipomoea = experiment: Compound (A) with primisulfuron, weed plots; conditions: 44 DAA, Trial 3.21
# Protocol: In these tests, various weeds were treated with primisulfuron alone at a rate equivalent to 35 g per hectare, […] and Compound (A) at rates equivalent to the sum of these. The compositions were formulated as an emulsifiable concentrate (EC).
# as §2
# Euphorbia = experiment: Compound (A) with primisulfuron, weed plots; conditions: 45 DAA, Trial 3.20
# Text: as §1, §2
compound,measurement,setting,value
CCOC(=O)COc1ncccc1Oc1cc(-n2c(=O)cc(C(F)(F)F)n(C)c2=O)c(F)cc1Cl [Compound (A)],percentage of the plants that were killed,STELLARIA MEDIA,63%
same,percentage of the plants that were killed,Corn; 1.25 g/ha,70%
same,percentage of the plants that were killed,Corn; 2.5 g/ha,90%
same,percentage of the plants that were killed,Corn; 5 g/ha,98%
same,percentage of the plants that were killed,Galium; 1.25 g/ha,50%
same,percentage of the plants that were killed,Galium; 2.5 g/ha,50%
same,percentage of the plants that were killed,Galium; 5 g/ha,100%
same,percentage of the plants that were killed,Ipomoea; 1.25 g/ha,80%
same,percentage of the plants that were killed,Ipomoea; 2.5 g/ha,100%
same,percentage of the plants that were killed,Ipomoea; 5 g/ha,100%
same,percentage of the plants that were killed,Euphorbia; 1.25 g/ha,50%
same,percentage of the plants that were killed,Euphorbia; 2.5 g/ha,70%
same,percentage of the plants that were killed,Euphorbia; 5 g/ha,70%
